From PubChem BioAssay AID330 (DTP/NCI, 2004)
Toxic doses and inconclusive results are not listed.

System: P388 leukemia ip, CD2F1 mice, survival T/C
Experiment: NCI In Vivo Anticancer Drug Screen. Data for tumor model P388 Leukemia (intraperitoneal) in CD2F1 (CDF1) mice
Details: endpoint: median survival time, higher = longer survival
Summary of the method: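 Mice carrying the transplanted tumor received test compound or vehicle. Survival was recorded in each group, and the value is the treated-group measurement divided by that of the vehicle-treated control group.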

[1] = dose: 50.0 mg/kg/injection, schedule: Q01DX009 (ip), vehicle: saline with Tween-80
[2] = dose: 100.0 mg/kg/injection, schedule: Q01DX009 (ip), vehicle: saline with Tween-80
[3] = dose: 100.0 mg/kg/injection, schedule: Q04DX003 (ip), vehicle: saline with Tween-80
[4] = dose: 200.0 mg/kg/injection, schedule: Q04DX003 (ip), vehicle: saline with Tween-80
[5] = dose: 200.0 mg/kg/injection, schedule: Q01DX009 (ip), vehicle: saline with Tween-80

CCN1C(=O)Nc2ccc(Cl)cc2C1(O)c1ccccc1 (stereo unspecified)
T/C (dose: 25.0 mg/kg/injection, schedule: Q01DX009 (ip), vehicle: saline with Tween-80): 95 % of control | T/C [1]: 102 % of control | T/C [2]: 99 % of control

CCCCCCSc1nn(CCC#N)c(=O)[nH]c1=O
T/C (dose: 25.0 mg/kg/injection, schedule: Q01DX005 (ip), vehicle: distilled water + alcohol): 103 % of control | T/C (dose: 50.0 mg/kg/injection, schedule: Q01DX005 (ip), vehicle: distilled water + alcohol): 108 % of control | T/C (dose: 100.0 mg/kg/injection, schedule: Q01DX005 (ip), vehicle: distilled water + alcohol): 103 % of control | T/C (dose: 200.0 mg/kg/injection, schedule: Q01DX005 (ip), vehicle: distilled water + alcohol): 92 % of control

Nc1snnc1C(=S)NC=S
T/C (dose: 100.0 mg/kg/injection, schedule: Q01DX001 (ip), vehicle: saline): 102 % of control | T/C (dose: 200.0 mg/kg/injection, schedule: Q01DX001 (ip), vehicle: saline): 105 % of control | T/C (dose: 400.0 mg/kg/injection, schedule: Q01DX001 (ip), vehicle: saline): 100 % of control

C=CCn1c(=S)sc2ccccc21
T/C (dose: 6.25 mg/kg/injection, schedule: Q01DX009 (ip), vehicle: Klucel (hydroxypropylcellulose) (HPC)): 105 % of control | T/C (dose: 12.5 mg/kg/injection, schedule: Q01DX009 (ip), vehicle: Klucel (hydroxypropylcellulose) (HPC)): 105 % of control | T/C (dose: 25.0 mg/kg/injection, schedule: Q01DX009 (ip), vehicle: Klucel (hydroxypropylcellulose) (HPC)): 104 % of control

CC(=O)O/N=C/c1cc[n+](C)cc1
T/C (dose: 25.0 mg/kg/injection, schedule: Q04DX003 (ip), vehicle: saline): 105 % of control | T/C (dose: 50.0 mg/kg/injection, schedule: Q04DX003 (ip), vehicle: saline): 101 % of control | T/C (dose: 100.0 mg/kg/injection, schedule: Q04DX003 (ip), vehicle: saline): 90 % of control

COc1ccc(-n2c(=O)c(N=Nc3ccc(C)cc3)c(O)n(-c3ccccc3Cl)c2=S)cc1
T/C (dose: 50.0 mg/kg/injection, schedule: Q01DX001 (ip), vehicle: Klucel (hydroxypropylcellulose) (HPC)): 96 % of control | T/C (dose: 100.0 mg/kg/injection, schedule: Q01DX001 (ip), vehicle: Klucel (hydroxypropylcellulose) (HPC)): 99 % of control | T/C (dose: 200.0 mg/kg/injection, schedule: Q01DX001 (ip), vehicle: Klucel (hydroxypropylcellulose) (HPC)): 96 % of control

ClCC1CCN(Cc2ccccc2)CC1
T/C [3]: 97 % of control | T/C [4]: 100 % of control

Cc1cc(C(C)(C)C)c(O)c(C(C)(C)C)c1
T/C (dose: 100.0 mg/kg/injection, schedule: Q01DX009 (ip), vehicle: distilled water + Tween-80 + alcohol): 104 % of control | T/C (dose: 200.0 mg/kg/injection, schedule: Q01DX009 (ip), vehicle: distilled water + Tween-80 + alcohol): 102 % of control | T/C (dose: 400.0 mg/kg/injection, schedule: Q01DX009 (ip), vehicle: distilled water + Tween-80 + alcohol): 98 % of control

O=C(O)c1cc(Br)cc(SSc2cc(Br)cc(C(=O)O)c2O)c1O
T/C [1]: 96 % of control

Clc1c2c(c(Cl)c3c1=Nc1ncccc1O3)=Nc1ncccc1O2
T/C [1]: 100 % of control | T/C [2]: 96 % of control | T/C [5]: 99 % of control

CCOC(=O)C(CC)C1=CCCCC1 (stereo unspecified)
T/C [1]: 109 % of control | T/C [2]: 118 % of control | T/C [3]: 109 % of control | T/C [5]: 118 % of control | T/C [4]: 100 % of control | T/C (dose: 400.0 mg/kg/injection, schedule: Q04DX003 (ip), vehicle: saline with Tween-80): 113 % of control

Cc1cc(C)c(C(Cl)(Cl)Cl)c(C)c1Cl
T/C (dose: 6.25 mg/kg/injection, schedule: Q04DX003 (ip), vehicle: saline with Tween-80): 104 % of control | T/C (dose: 8.0 mg/kg/injection, schedule: Q04DX003 (ip), vehicle: saline with Tween-80): 90 % of control | T/C (dose: 12.0 mg/kg/injection, schedule: Q04DX003 (ip), vehicle: saline with Tween-80): 100 % of control | T/C (dose: 12.5 mg/kg/injection, schedule: Q01DX009 (ip), vehicle: saline sonified): 118 % of control | T/C (dose: 12.5 mg/kg/injection, schedule: Q04DX003 (ip), vehicle: saline with Tween-80): 118 % of control | T/C (dose: 18.0 mg/kg/injection, schedule: Q04DX003 (ip), vehicle: saline with Tween-80): 113 % of control | T/C (dose: 33.0 mg/kg/injection, schedule: Q01DX009 (ip), vehicle: saline sonified): 165 % of control | T/C (dose: 50.0 mg/kg/injection, schedule: Q01DX009 (ip), vehicle: saline sonified): 150 % of control | T/C (dose: 75.0 mg/kg/injection, schedule: Q01DX009 (ip), vehicle: saline sonified): 105 % of control

Cc1nc(-c2ccc(Cl)cc2)c(Cc2c(O)ccc3ccccc23)c(=O)[nH]1
T/C (dose: 50.0 mg/kg/injection, schedule: Q01DX009 (ip), vehicle: saline): 102 % of control | T/C (dose: 100.0 mg/kg/injection, schedule: Q01DX009 (ip), vehicle: saline): 102 % of control | T/C (dose: 200.0 mg/kg/injection, schedule: Q01DX009 (ip), vehicle: saline): 102 % of control
